Laboratory results reported in the CombiSolv-Exp solvation set (Vermeire and Green 2021).

Assay: solvent given as SMILES

CCOCOCC
Conditions	solvation free energy, 298 K [kcal/mol]
in CCCCCl	-4.67
in ClC(Cl)(Cl)Cl	-4.97
in ClCCl	-5.47
in O	-2.96

CCNc1nc(NCC)nc(SC)n1
Conditions	solvation free energy, 298 K [kcal/mol]
in O	-10.1

Cc1ccc(C)c(C)c1
Conditions	solvation free energy, 298 K [kcal/mol]
in O	-0.83

CCC=CCC
Conditions	solvation free energy, 298 K [kcal/mol]
in C=CCCCCCCCCCCCCCC	-3.51
in O	1.62

c1ccc2nc3ccccc3cc2c1
Conditions	solvation free energy, 298 K [kcal/mol]
in O	-6.75

CC(C)CCCCCCOC(=O)c1ccccc1C(=O)OCCCCCCC(C)C
Conditions	solvation free energy, 298 K [kcal/mol]
in O	-6.14

COC(=O)c1ccc(OC)cc1
Conditions	solvation free energy, 298 K [kcal/mol]
in O	-5.33

Clc1ccc(-c2cc(Cl)c(Cl)cc2Cl)cc1Cl
Conditions	solvation free energy, 298 K [kcal/mol]
in O	-3.36

C=CCCCCCCC
Conditions	solvation free energy, 298 K [kcal/mol]
in CCCCCCCCO	-5.21
in O	2.06

Cc1ccccc1C
Conditions	solvation free energy, 298 K [kcal/mol]
in CC#N	-5.37
in CC(C)CC(C)(C)C	-5.5
in CC(O)CO	-4.31
in CCCCCCC	-5.51
in CCCCCCCCCCCCCCCC	-5.38
in CCCCCCCCO	-5.3
in CCCCCO	-5.18
in CCCCOC(C)=O	-6.22
in CNC=O	-5.02
in COCCO	-5.25
in ClCCCl	-6.13
in NC=O	-3.55
in NCCO	-4.08
in O	-0.89
in O=CN1CCOCC1	-5.27
in O=Cc1ccco1	-5.37
in OCCO	-3.65
in OCCOCCO	-4.48
in OCCOCCOCCO	-4.61

C=CCCC=C
Conditions	solvation free energy, 298 K [kcal/mol]
in C=CCCCCCCCCCCCCCC	-3.36
in CCCCCCCCCCCCCCCC	-3.48
in CN1CCCC1=O	-3.23
in CS(C)=O	-2.74
in O	0.97

CCOC(=O)c1ccc(N)cc1
Conditions	solvation free energy, 298 K [kcal/mol]
in CC(C)CCO	-11.1
in CCCC(C)O	-11.2

ClC1=C(Cl)C2(Cl)C3C(Cl)CC(Cl)C3C1(Cl)C2(Cl)Cl (centres undefined)
Conditions	solvation free energy, 298 K [kcal/mol]
in O	-3.44

Cc1ccccc1N(O)C(=O)c1ccc(Cl)cc1
Conditions	solvation free energy, 298 K [kcal/mol]
in O	-10.8

Nc1cccc([N+](=O)[O-])c1
Conditions	solvation free energy, 298 K [kcal/mol]
in CC(C)CC(C)(C)C	-8.01
in O	-8.84

CCBr
Conditions	solvation free energy, 298 K [kcal/mol]
in Brc1cccc2ccccc12	-3.23
in C=CCCCCCCCCCCCCCC	-2.91
in CC(=O)N(C)C	-3.44
in CC(=O)OCc1ccccc1	-3.32
in CC(C)CC(C)(C)C	-2.95
in CCC(C)=O	-3.53
in CCCCCC	-3.14
in CCCCCCC	-3.04
in CCCCCCCC	-2.99
in CCCCCCCCO	-2.88
in CCCCCl	-3.51
in CCCCO	-3.03
in CCO	-3.03
in CCOC(C)=O	-3.53
in CN(C)C=O	-3.22
in Cc1ccc(C)cc1	-3.41
in ClC(Cl)(Cl)Cl	-3.45
in ClC(Cl)Cl	-3.77
in ClCCCl	-3.6
in Clc1ccccc1	-3.51
in N#Cc1ccccc1	-3.41
in O	-0.74
in O=C1CCCCC1	-3.55
in c1ccc2ncccc2c1	-3.31

CCC(O)CC
Conditions	solvation free energy, 298 K [kcal/mol]
in O	-4.35

CCCC(C)(O)CC (centres undefined)
Conditions	solvation free energy, 298 K [kcal/mol]
in CCCCCCCC	-5.4
in CCCCCCCCCC	-5.34

C=C(C)C1CC=C(C)C(OC=O)C1 (centres undefined)
Conditions	solvation free energy, 298 K [kcal/mol]
in O	-3.82

COS(C)(=O)=O
Conditions	solvation free energy, 298 K [kcal/mol]
in O	-4.87

Clc1cc(Cl)c(-c2cc(Cl)ccc2Cl)c(Cl)c1
Conditions	solvation free energy, 298 K [kcal/mol]
in O	-2.25

O=O
Conditions	solvation free energy, 298 K [kcal/mol]
in Brc1ccccc1	1.16
in C1CCCCC1	0.75
in C1CCOC1	0.82
in C1COCCO1	1.1
in CC(C)(C)O	0.78
in CC(C)=O	0.76
in CC(C)CC(C)(C)C	0.51
in CC(C)CO	0.89
in CC(C)O	0.89
in CCC(C)=O	0.76
in CCC(C)O	0.91
in CCCC(C)=O	0.81
in CCCCC(C)=O	0.86
in CCCCCC	0.59
in CCCCCCC	0.64
in CCCCCCCC	0.7
in CCCCCCCCC	0.73
in CCCCCCCCCC	0.77
in CCCCCCCCCCC	0.79
in CCCCCCCCCCCC	0.83
in CCCCCCCCCCCCC	0.87
in CCCCCCCCCCCCCC	0.89
in CCCCCCCCCCCCCCC	0.92
in CCCCCCCCCCCCCCCC	0.94
in CCCCCCCCCCCO	1.1
in CCCCCCCCCCO	1.09
in CCCCCCCCCO	1.06
in CCCCCCCCO	1.04
in CCCCCCCO	1.02
in CCCCCCO	0.98
in CCCCCO	0.95
in CCCCO	0.93
in CCCCOCCCC	0.78
in CCCO	0.9
in CCCOCCC	0.65
in CCO	0.85
in CCOC(C)=O	0.9
in CCOCC	0.48
in CNC=O	1.12
in CO	0.82
in COC(C)=O	0.77
in Cc1ccc(C)cc1	0.83
in Cc1cccc(C)c1	0.85
in Cc1ccccc1C	0.88
in ClC(Cl)(Cl)Cl	0.71
in ClC(Cl)Cl	0.97
in ClCCCl	1.09
in ClCCl	0.9
in Clc1ccccc1	1
in Fc1ccccc1	0.56
in Ic1ccccc1	1.3
in O	2.06
in O=C1CCCC1	1.1
in O=C1CCCCC1	1.13

CN(C)c1ccc(C(=O)O)cc1
Conditions	solvation free energy, 298 K [kcal/mol]
in CN(C)C=O	-13.8
in O	-9.28

CCCCCO
Conditions	solvation free energy, 298 K [kcal/mol]
in Brc1ccccc1	-5.42
in C1CCOC1	-6.61
in CC#N	-5.85
in CC(C)(C)O	-6.96
in CC(C)CC(C)(C)C	-4.37
in CC(C)CO	-6.85
in CC(C)O	-6.83
in CCCCCC	-4.62
in CCCCCCC	-4.48
in CCCCCCCC	-4.27
in CCCCCCCCCC	-4.16
in CCCCCCCCCCCCCCCC	-4.08
in CCCCCCCCCCO	-6.39
in CCCCCCCCO	-6.37
in CCCCCCO	-6.68
in CCCCO	-6.77
in CCCO	-6.78
in CO	-6.84
in Cc1cccc(C)c1	-5.21
in Cc1ccccc1C	-5.21
in Clc1ccccc1	-5.48
in NC=O	-5.65
in O	-4.56
in [2H]O[2H]	-4.61

O=C(O)c1cccc(Cl)c1
Conditions	solvation free energy, 298 K [kcal/mol]
in C1CCOC1	-11.2
in C1COCCO1	-10.9
in CC(C)CCO	-10.5
in CC(C)CO	-10.5
in CC(C)O	-10.7
in CC(C)OC(C)C	-10.1
in CCC(C)O	-10.6
in CCCCCCCCCCO	-10.3
in CCCCCCCCO	-10.4
in CCCCCCCO	-10.5
in CCCCCCO	-10.6
in CCCCCO	-10.6
in CCCCCOC(C)=O	-10.1
in CCCCO	-10.6
in CCCCOC(C)=O	-10.2
in CCCO	-10.7
in CCO	-10.7
in CCOC(C)=O	-10.4
in CCOCC	-10.5
in O	-7.03

CC(=O)Nc1ccccc1
Conditions	solvation free energy, 298 K [kcal/mol]
in C1COCCO1	-11.8
in O	-9.79

CC(C)(C)C
Conditions	solvation free energy, 298 K [kcal/mol]
in C1COCCO1	-2.16
in CC(C)=O	-2.22
in CCCCCC	-2.77
in CCO	-2.2
in CO	-1.91
in O	2.66

Cc1ccc(C2(C)CCCC2(C)C)cc1 (centres undefined)
Conditions	solvation free energy, 298 K [kcal/mol]
in O	-0.61

c1ccc2c(c1)ccc1c3ccccc3ccc21
Conditions	solvation free energy, 298 K [kcal/mol]
in CCCCCCCCC=CCCCCCCCC(=O)OCC(COC(=O)CCCCCCCC=CCCCCCCCC)OC(=O)CCCCCCCC=CCCCCCCCC	-13.9
in O	-6.53

O=S=O
Conditions	solvation free energy, 298 K [kcal/mol]
in C1CCC2CCCCC2C1	-1.26
in C1CCCCC1	-1.23
in C1CCOC1	-3.93
in C1COCCO1	-3.41
in CC1COC(=O)O1	-3.16
in CC#N	-3.25
in CC(=O)N(C)C	-3.52
in CC(C)=O	-3.52
in CC(C)CC(C)(C)C	-1.17
in CCCCCCC	-1.36
in CCCCCCCC	-1.01
in CCCCCCCCCCCCCCCC	-1.1
in CCOC(C)=O	-3.22
in CN1CCCC1=O	-3.11
in CO	-2.84
in COC(=O)CC#N	-2.82
in COC(C)=O	-3.08
in COCCOCCO	-4.09
in COCCOCCOC	-4.02
in COCCOCCOCCOC	-3.89
in COCCOCCOCCOCCOC	-3.85
in CS(C)=O	-4.71
in ClCCCl	-2.55
in N#Cc1ccccc1	-2.59
in O	-2.07
in OCCO	-2.88
in OCc1ccccc1	-2.8
in c1ccncc1	-4.82

Cc1cc(O)ccc1Cl
Conditions	solvation free energy, 298 K [kcal/mol]
in O	-6.79

COc1cc(C(C)=O)ccc1O
Conditions	solvation free energy, 298 K [kcal/mol]
in CCC(C)=O	-12.2
in CCCO	-11.8
in Cc1ccccc1	-10.8
in ClC=CCl	-12

C1CCCC1
Conditions	solvation free energy, 298 K [kcal/mol]
in CC#N	-2.52
in CC(C)CCCC(C)CCCC(C)CCCCC(C)CCCC(C)CCCC(C)C	-3.23
in CC(C)O	-2.89
in CCCC#N	-2.86
in CCCCCC	-3.7
in CCCCCCCCCC	-3.46
in CCCCCCCCCCCC	-3.37
in CCCCCCCCCCCCCCCC	-3.31
in CCCCCCCO	-3.1
in CCCO	-2.89
in CCO	-2.78
in CN1CCCC1=O	-2.7
in CN1CCCCC1=O	-2.81
in CN1CCN(C)C1=O	-2.56
in CN(C)C=O	-2.73
in CO	-2.62
in COC(C)(C)C	-3.55
in ClC(Cl)(Cl)Cl	-3.78
in ClC=CCl	-3.78
in N#CCCCCC#N	-2.08
in N#Cc1ccccc1	-3
in NCCO	-1.24
in O	1.2
in O=CN1CCOCC1	-2.22
in O=Cc1ccco1	-2.41
in OC1CCCCC1	-3.02
in OCc1ccccc1	-2.7
in OCc1ccco1	-2.39
in S=C=S	-3.84
in c1ccc2ncccc2c1	-3.21

Cc1ccc(N)cc1
Conditions	solvation free energy, 298 K [kcal/mol]
in CC(C)CC(C)(C)C	-6.29
in CCCCCC	-6.06
in CCCCCCC	-6.14
in CCCCCCCC	-6.29
in Cc1cccc(C)c1	-7.26
in Cc1ccccc1C	-7.27
